# From publication PMC4474691, “Leukemia-Associated Mutations in Nucleophosmin Alter Recognition by CRM1: Molecular Basis of Aberrant Transport” (PLoS ONE, 2015)
# Key:
# CRM1^HA [1] = molecular target: T1, CRM1^HA (Mus musculus, UniProt Q6P5F9, L431A/V430A/V432A); test: Ni-NTA chromatography of TFP-NES / CRM1^HA complex formation; assay type: binding; conditions: 2.5 mg His-tagged TFP construct on 1 mL Histrap FF, 1 mL CRM1^HA 18 μM; 50 mM Tris/HCl pH 8.0, 500 mM NaCl; SDS-PAGE
# T1 construct: His-ZZ (cleaved yes); made in house; host or cells: Escherichia coli BL21-CodonPlus (DE3)
# T1 sequence (Q6P5F9 1-1062 V430A/L431A/V432A limits assumed): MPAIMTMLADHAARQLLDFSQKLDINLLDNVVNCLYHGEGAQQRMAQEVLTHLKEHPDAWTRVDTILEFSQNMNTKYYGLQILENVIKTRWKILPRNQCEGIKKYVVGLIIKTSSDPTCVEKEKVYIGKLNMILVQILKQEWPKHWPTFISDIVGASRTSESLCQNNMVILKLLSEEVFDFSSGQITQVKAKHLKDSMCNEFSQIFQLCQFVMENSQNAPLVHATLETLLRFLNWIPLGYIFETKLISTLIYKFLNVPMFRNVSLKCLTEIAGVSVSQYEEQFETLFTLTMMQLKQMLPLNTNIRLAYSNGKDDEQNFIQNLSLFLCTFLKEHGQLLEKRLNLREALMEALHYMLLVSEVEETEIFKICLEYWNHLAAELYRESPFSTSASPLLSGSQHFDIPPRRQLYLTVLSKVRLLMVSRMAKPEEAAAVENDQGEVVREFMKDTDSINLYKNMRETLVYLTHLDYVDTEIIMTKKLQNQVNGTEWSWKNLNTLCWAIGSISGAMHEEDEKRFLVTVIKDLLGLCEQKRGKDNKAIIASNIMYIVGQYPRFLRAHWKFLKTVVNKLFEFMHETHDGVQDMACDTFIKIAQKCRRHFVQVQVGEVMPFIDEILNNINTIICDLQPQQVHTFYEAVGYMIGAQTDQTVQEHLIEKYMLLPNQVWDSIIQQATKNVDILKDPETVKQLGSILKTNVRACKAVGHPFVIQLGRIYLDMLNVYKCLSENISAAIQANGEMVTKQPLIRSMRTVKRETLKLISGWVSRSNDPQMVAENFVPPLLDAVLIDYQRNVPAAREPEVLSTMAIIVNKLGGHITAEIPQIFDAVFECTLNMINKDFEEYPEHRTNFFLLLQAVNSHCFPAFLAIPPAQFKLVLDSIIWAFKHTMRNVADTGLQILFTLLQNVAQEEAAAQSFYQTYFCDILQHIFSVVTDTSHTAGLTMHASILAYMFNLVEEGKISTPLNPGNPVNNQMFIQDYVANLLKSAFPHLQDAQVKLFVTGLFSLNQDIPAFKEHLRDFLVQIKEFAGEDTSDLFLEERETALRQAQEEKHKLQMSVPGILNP
# Excerpt: Although the relative potency of the NESs acquired by the different NPM mutants has been compared using an in vivo export assay, their CRM1-binding affinities have not yet been determined. We cloned the NESs of mutant A and E as C-terminal fusions to a teal fluorescent protein (TFP) (Fig 4A). As a reference, we generated an equivalent construct with the well-characterized NES of protein kinase inhibitor (PKI). We first tested the binding of CRM1^HA to the TFP-NES constructs using Ni-NTA chromatography. His-tagged TFP constructs were bound to the Ni-NTA column, and an excess of untagged CRM1^HA was then injected (S4 Fig).
# Supplementary file pone.0130610.s004.tif: S4 Fig TFP-NES / CRM1^HA complex formation shown by Ni-NTA chromatography. 2.5 mg of the His-tagged TFP construct were loaded on a 1 mL Histrap FF (GE Healthcare) in buffer 50 mM Tris/HCl, pH 8.0, 500 mM NaCl, 1 mM TCEP, 2 mM MgCl2, 5% glycerol, containing 15 mM imidazole. After washing with the same buffer, 1 mL of CRM1^HA at 18 μM was injected at 0.1 mL/min flow rate. Unbound CRM1^HA was collected, and then bound proteins were eluted with 2 M imidazole. SDS-PAGE of elution fractions: Unbound (free) CRM1^HA and the fraction eluted with imidazole, containing both the His-tagged TFP construct along with bound CRM1^HA. (TIF) Click here for additional data file.
# CRM1^HA [2] = molecular target: T1, CRM1^HA; test: Fluorescence anisotropy binding assay, CRM1^HA; conditions: 0–60 μM CRM1^HA, 25°C
# Method: Fluorescence anisotropy binding assays
# To estimate CRM1 binding affinities for NES motifs we monitored binding with a fluorescence-polarization assay based on previously described approaches. The increase in fluorescence anisotropy of TFP/YFP when the TFP/YFP-NES construct (50 nM) binds to 0–60 μM CRM1 (either CRM^HA or wild type) was recorded at 25°C with a 8100 SLM-Aminco spectrofluorometer in buffer 20 mM Tris/HCl, pH 7.4, 50 mM NaCl, 5 mM DTT, 2 mM MgCl2. Excitation and emission wavelengths were 463, 500 nm for TFP and 463, 533 nm for YFP, and slits width 4 and 8 nm, respectively.
# Fig 4 Binding of CRM1 to TFP-NES constructs. (A) Scheme of the engineered TFP constructs, showing the sequence of the NES motifs. Φ residues are highlighted in red. (B) Titration of CRM1 onto the different TFP constructs (50 nM), at 25°C, in buffer 20 mM Tris/HCl, pH 7.4, 50 mM NaCl, 5 mM DTT, 2 mM MgCl2: Left panel: Binding of CRM1^HA (solid symbols) or wild type CRM1 (empty symbols) to TFP-PKI(NES). Right panel: Binding of CRM1^HA to TFP-mutE(NES) (triangles) and TFP-mutA(NES) (squares). Fraction bound was calculated from the relative increase in fluorescence anisotropy of TFP (λexc 463 nm, λem 500 nm). Error bars correspond to at least three measurements per CRM1 concentration.
# We next used the TFP-(NES) constructs to monitor CRM1^HA binding to each motif, using the change in fluorescence anisotropy upon complex formation as a readout (Fig 4B), as previously described. […] The different nature of the fluorescent tag, and/or the linker between the fluorescent protein and the NES (2 residues longer in the YFP-PKI construct) could explain the discrepancy. […] To isolate the CRM1 / NES interaction under study from the influence of the tag protein, we have also conducted binding assays with peptides corresponding to the NES motifs (see below).
# CRM1^HA [3] = molecular target: T1, CRM1^HA; test: Isothermal titration calorimetry, CRM1^HA / NES; assay type: binding; conditions: ITC, 20°C; for Kd: read-out: KD
# Method: Isothermal titration calorimetry (ITC)
# ITC measurements were carried out using a VIP-ITC MicroCalorimeter (MicroCal, Inc., Northampton, MA). TFP and YFP constructs, as well as CRM1^HA, were dialyzed in a buffer containing 20 mM HEPES, pH 7.4, 50 mM NaCl, 1 mM TCEP, 1 mM MgCl2, and degassed prior to the experiment. Untagged peptides (AS: QDLCLAVEEVSLRK, AL: EAIQDLCLAVEEVSLRK, ES: QDLWQSLAQVSLRK and EL: EAIQDLWQSLAQVSLRK), N-acetylated and 95% pure, were purchased from Proteogenix (Schiltigheim, France) and resuspended in the ITC buffer. Measurements were performed at 20°C. TFP-NES, YFP-NES or NES peptides at 35–180 μM were titrated onto CRM1^HA at 2–14 μM. Injections of 6 μL were performed at 320 seconds interval (the first injection always was of 1 μL and is not considered in data analysis). To determine the thermodynamic parameters of NPM / importin interaction, importin α, importin Δα or importin α/β at 45–60 μM were titrated onto NPM (1–1.2 μM pentamer) in 50 mM Tris/HCl, pH 7.5, 100 mM NaCl, 2 mM TCEP, and 10% glycerol. […] “Reverse” titrations, where 20–30 μM NPM was titrated onto 7–10 μM of the different importins were also performed and yielded similar results.
# The reaction heat of each injection is related to the calorimetric enthalpy of binding, ΔH^0. The binding isotherms, ΔH^0 vs. molar ratio, were analyzed with an independent binding sites model using MicroCal Origin software. The fit of the binding curve yields the binding constant KA (KD = 1/KA) and the enthalpy ΔH^0 of the binding reaction. The Gibbs free energy of binding ΔG^0 and the entropy ΔS^0 are determined from the basic thermodynamic expressions: ΔG^0 = -RTlnKA = ΔH^0−TΔS^0, where R and T are the gas constant and the absolute temperature, respectively.
# Fig 5 Analysis of CRM1^HA/TFP-NES interaction by ITC. Isothermal titration of CRM1^HA with TFP-mutE(NES). […] The titration of negative control TFP-Cter (180 μM) onto CRM1^HA (14 μM) (circles) is also shown for comparison.
# HeLa cells = test: In vivo nuclear export assay, Rev(1.4)-GFP; assay type: cell-based; conditions: Rev(1.4)-NPMcNES-GFP in HeLa cells, actinomycin D, >200 cells per sample
# Excerpt: The clone of Myc3 tagged human NPM in pCDNA3.1 for eukaryotic expression was kindly provided by Dr. Yanping Zhang (University of Texas). From this clone, we used PCR to generate the AML-associated mutants A and E [27], by incorporating the mutations in the 3´oligonucleotide. The three NPM variants (wild type, A and E) were subcloned as YFP-NPM fusions into pEYFP-C1. The plasmid encoding YFP-CRM1 has been previously described, and pEYFP-C1 was used as its corresponding negative control. As a positive control in cell localization assays, a previously described plasmid encoding Flag-tagged Survivin fused to a heterologous NLS (“SurvNLS”) was used. To test the export activity of a novel putative NES in the C-terminal domain of wild type NPM, a DNA fragment encoding residues 264–282 was cloned into the plasmid Rev (1.4)-GFP (a gift of Dr. Beric Henderson, University of Sydney), as previously described.
# The export activity of a novel putative NES in the C-terminal domain of NPM was tested using an established in vivo nuclear export assay in HeLa cells (see Supporting Information for further experimental details).
# Supplementary file pone.0130610.s001.tif: S1 Fig A novel candidate NES (cNES) in NPM is not active in a nuclear export assay. […] Fluorescence microscopy images in panel B show the localization of the different proteins. […] More than 200 cells were counted per sample. […]
# CRM1^HA [4] = molecular target: T1, CRM1^HA; test: Size exclusion chromatography of NPM / CRM1^HA complex formation; assay type: binding
# Method: Chromatography-based binding experiments
# […] Then 100 μL were loaded onto a Superdex 200 10/30 column (GE Healthcare), equilibrated in buffer 20 mM Tris/HCl, pH 7.4, 100 mM NaCl, 5 mM DTT, 2 mM MgCl2. Runs were performed at 15°C and a flow rate of 0.2 mL / min. The eluted fractions were analyzed by SDS-PAGE. TFP-NES/CRM1^HA complex formation was also tested by Ni-NTA chromatography (see Supporting Information).
# Fig 3 Native-like properties of CRM1^HA “high affinity” mutant and formation of complexes between this CRM1 variant and AML-related NPM mutants. (A) Circular dichroism thermal denaturation profiles of wild type CRM1 and CRM1^HA, followed by ellipticity at 222 nm as a function of temperature. […] When evaluating the relative amounts of the complex and free NPM, one should take into account that absorbance at 280 nm is lower for the mutants (especially NPMmutA) than for wild type NPM, since wild type NPM contains two Trp residues per subunit, NPMmutE one, and NPMmutA none. […] They are detected in the fractions containing the complex probably due to formation of mixed oligomers with the full length species and/or incomplete resolution from free NPM. […]
substance,measurement,setting,value
"DLCLAVEEVSLRK [TFP-mutA(NES), NES of NPM mutant A as C-terminal fusion to teal fluorescent protein]",CRM1^HA binding in Ni-NTA chromatography,CRM1^HA [1],not even detected in these conditions
same,Kd,"CRM1^HA [2]; TFP-NES 50 nM, pH 7.4, rounded, read-out: apparent KD",5 µM
same,Kd,"CRM1^HA [2]; TFP/YFP-NES construct 50 nM, 20 mM Tris/HCl pH 7.4, 50 mM NaCl, 5 mM DTT, 2 mM MgCl2, at least three measurements per CRM1 concentration, read-out: apparent KD (C50)",4.97 ± 1.18 µM
same,Kd,"CRM1^HA [3]; NES ligand (35–180 μM) titrated onto CRM1^HA (2–14 μM), 20 mM HEPES pH 7.4, 50 mM NaCl, 1 mM TCEP, 1 mM MgCl2, independent binding sites model",2.38 ± 0.698 µM
same,ΔH,"CRM1^HA [3]; NES ligand titrated onto CRM1^HA, 20 mM HEPES pH 7.4",-14.5 ± 6.2 kcal/mol
same,-TΔS,"CRM1^HA [3]; NES ligand titrated onto CRM1^HA, 20 mM HEPES pH 7.4, from ΔG = ΔH − TΔS",6.9 ± 6.1 kcal/mol
same,n (binding stoichiometry),"CRM1^HA [3]; NES ligand titrated onto CRM1^HA, 20 mM HEPES pH 7.4, low n of peptides might result from limited solubility",0.54 ± 0.27
same,ΔG,"CRM1^HA [3]; NES ligand titrated onto CRM1^HA, 20 mM HEPES pH 7.4, ΔG = -RTlnKA",-7.6 ± 0.1 kcal/mol
same,Kd,"CRM1^HA [3]; TFP-NES titrated onto CRM1^HA, 20 mM HEPES pH 7.4, rounded",2.4 µM
"VEAKFINYVKNCFRMTDQE [NPM cNES, candidate NES in C-terminal domain of NPM, tested as Rev(1.4)-GFP fusion]",nuclear export activity,HeLa cells,not functional as a nuclear export signal
same,nuclear export activity,HeLa cells; listed as 268-FINYVKNCFRM-278,inactive
"wild type NPM: nucleophosmin, pentameric nucleolar protein",complex formation with CRM1^HA,"CRM1^HA [4]; SEC Superdex 200, 20 μM (pentamer) NPM + 40 μM CRM1^HA, 30 min room temperature, run at 15°C, 20 mM Tris/HCl pH 7.4, 100 mM NaCl, mutant preparations partly C-terminally degraded",did not result in any complex stable enough as to be detected by SEC
same,complex formation with CRM1^HA,"CRM1^HA [4]; SEC, 40 μM NPM + 140 μM CRM1^HA (data not shown)",failed to produce any detectable complex
